According to ChEMBL document CHEMBL1156319, “Synthesis, crystal and antibacterial studies of diversely functionalized tetrahydropyridin-4-ol” (2010):
Converted amounts (≈) assume the structure as drawn.

Legend:
Type in all cases: functional
[1] = test system: Staphylococcus epidermidis; assay: Antibacterial activity against Staphylococcus epidermidis LCB0003 by two fold serial dilution method
Enterococcus faecalis = assay: Antibacterial activity against Enterococcus faecalis LCB0005 by two fold serial dilution method
Enterococcus faecium = assay: Antibacterial activity against Enterococcus faecium LCB0009 by two fold serial dilution method
Escherichia coli [2] = assay: Antibacterial activity against Escherichia coli LCB0010 by two fold serial dilution method
Escherichia coli [3] = assay: Antibacterial activity against Escherichia coli LCB0011 by two fold serial dilution method
Escherichia coli [4] = assay: Antibacterial activity against Escherichia coli LCB0012 by two fold serial dilution method
Pseudomonas aeruginosa = assay: Antibacterial activity against Pseudomonas aeruginosa LCB0013 by two fold serial dilution method
Klebsiella pneumoniae = assay: Antibacterial activity against Klebsiella pneumoniae LCB0014 by two fold serial dilution method
Haemophilus influenzae = assay: Antibacterial activity against Haemophilus influenzae LCB0015 by two fold serial dilution method
Moraxella catarrhalis = assay: Antibacterial activity against Moraxella catarrhalis LCB0016 by two fold serial dilution method
Staphylococcus aureus = assay: Antibacterial activity against Staphylococcus aureus LCB0001 by two fold serial dilution method

Compound | MIC90 [1] | MIC90 (Enterococcus faecalis) | MIC90 (Enterococcus faecium) | MIC90 (Escherichia coli [2]) | MIC90 (Escherichia coli [3]) | MIC90 (Escherichia coli [4]) | MIC90 (Pseudomonas aeruginosa) | MIC90 (Klebsiella pneumoniae) | MIC90 (Haemophilus influenzae) | MIC90 (Moraxella catarrhalis) | MIC90 (Staphylococcus aureus)
CCOC(=O)C1=C(O)CC(c2ccccc2)N(C(=O)C(C)N2CCOCC2)C1c1ccccc1 (stereo not given) | > 128 mg/L | > 128 mg/L | 128 mg/L (≈ 276 µM) | > 128 mg/L | > 128 mg/L | > 128 mg/L | > 128 mg/L | > 128 mg/L | > 128 mg/L | > 128 mg/L | > 128 mg/L
CCOC(=O)C1=C(O)CC(c2ccccc2)N(C(=O)C(C)Oc2ccc3ccccc3c2)C1c1ccccc1 (stereo not given) | > 128 mg/L | > 128 mg/L | > 128 mg/L | > 128 mg/L | > 128 mg/L | > 128 mg/L | > 128 mg/L | > 128 mg/L | > 128 mg/L | > 128 mg/L | > 128 mg/L
CCOC(=O)C1=C(O)CC(c2ccccc2)N(C(=O)C(C)n2nnc3ccccc32)C1c1ccccc1 (stereo not given) | > 128 mg/L | > 128 mg/L | > 128 mg/L | > 128 mg/L | > 128 mg/L | > 128 mg/L | > 128 mg/L | > 128 mg/L | > 128 mg/L | > 128 mg/L | > 128 mg/L
CCOC(=O)C1=C(O)CC(c2ccccc2)N(C(=O)C(C)N2CCC(=O)CC2)C1c1ccccc1 (stereo not given) | > 128 mg/L | > 128 mg/L | > 128 mg/L | > 128 mg/L | > 128 mg/L | 128 mg/L (≈ 269 µM) | > 128 mg/L | > 128 mg/L | > 128 mg/L | > 128 mg/L | > 128 mg/L
CCOC(=O)C1=C(O)CC(c2ccccc2)N(C(=O)CN2CCC(=O)CC2)C1c1ccccc1 (stereo not given) | > 128 mg/L | > 128 mg/L | > 128 mg/L | > 128 mg/L | > 128 mg/L | > 128 mg/L | > 128 mg/L | > 128 mg/L | > 128 mg/L | 64 mg/L (≈ 138 µM) | > 128 mg/L
CCOC(=O)C1=C(O)CC(c2ccccc2)N(C(=O)CSc2nc3ccccc3o2)C1c1ccccc1 (stereo not given) | > 128 mg/L | > 128 mg/L | > 128 mg/L | > 128 mg/L | > 128 mg/L | > 128 mg/L | > 128 mg/L | > 128 mg/L | > 128 mg/L | > 128 mg/L | > 128 mg/L
CCOC(=O)C1=C(O)CC(c2ccccc2)N(C(=O)CN2CCN(C)CC2)C1c1ccccc1 (stereo not given) | > 128 mg/L | > 128 mg/L | 128 mg/L (≈ 276 µM) | > 128 mg/L | > 128 mg/L | > 128 mg/L | > 128 mg/L | > 128 mg/L | > 128 mg/L | 32 mg/L (≈ 69 µM) | > 128 mg/L
CCOC(=O)C1=C(O)CC(c2ccccc2)N(C(=O)C(C)Sc2nc3ccccc3o2)C1c1ccccc1 (stereo not given) | > 128 mg/L | > 128 mg/L | > 128 mg/L | > 128 mg/L | > 128 mg/L | > 128 mg/L | > 128 mg/L | > 128 mg/L | > 128 mg/L | > 128 mg/L | > 128 mg/L
CCOC(=O)C1=C(O)CC(c2ccccc2)N(C(=O)Cn2ccnc2)C1c1ccccc1 (stereo not given) | > 128 mg/L | > 128 mg/L | > 128 mg/L | > 128 mg/L | > 128 mg/L | 64 mg/L (≈ 148 µM) | > 128 mg/L | > 128 mg/L | > 128 mg/L | 64 mg/L (≈ 148 µM) | 128 mg/L (≈ 297 µM)
CCOC(=O)C1=C(O)CC(c2ccccc2)N(C(=O)CSc2ccc3ccccc3c2)C1c1ccccc1 (stereo not given) | > 128 mg/L | > 128 mg/L | 128 mg/L (≈ 244 µM) | > 128 mg/L | > 128 mg/L | > 128 mg/L | > 128 mg/L | > 128 mg/L | > 128 mg/L | > 128 mg/L | > 128 mg/L
CCOC(=O)C1=C(O)CC(c2ccccc2)N(C(=O)C(C)N2CCSCC2)C1c1ccccc1 (stereo not given) | > 128 mg/L | > 128 mg/L | > 128 mg/L | > 128 mg/L | > 128 mg/L | > 128 mg/L | > 128 mg/L | > 128 mg/L | > 128 mg/L | > 128 mg/L | > 128 mg/L
CCOC(=O)C1=C(O)CC(c2ccccc2)N(C(=O)CN2CCCCC2)C1c1ccccc1 (stereo not given) | > 128 mg/L | > 128 mg/L | 128 mg/L (≈ 285 µM) | > 128 mg/L | > 128 mg/L | 64 mg/L (≈ 143 µM) | > 128 mg/L | > 128 mg/L | > 128 mg/L | 32 mg/L (≈ 71.3 µM) | > 128 mg/L
CCOC(=O)C1=C(O)CC(c2ccccc2)N(C(=O)C(C)n2nnc(-c3ccccc3)n2)C1c1ccccc1 (stereo not given) | > 128 mg/L | > 128 mg/L | > 128 mg/L | > 128 mg/L | > 128 mg/L | > 128 mg/L | > 128 mg/L | > 128 mg/L | > 128 mg/L | > 128 mg/L | > 128 mg/L
CCOC(=O)C1=C(O)CC(c2ccccc2)N(C(=O)CN2CCSCC2)C1c1ccccc1 (stereo not given) | > 128 mg/L | > 128 mg/L | > 128 mg/L | > 128 mg/L | > 128 mg/L | > 128 mg/L | > 128 mg/L | > 128 mg/L | > 128 mg/L | 64 mg/L (≈ 137 µM) | > 128 mg/L
CCOC(=O)C1=C(O)CC(c2ccccc2)N(C(=O)CN2CCOCC2)C1c1ccccc1 (stereo not given) | > 128 mg/L | > 128 mg/L | > 128 mg/L | > 128 mg/L | > 128 mg/L | > 128 mg/L | > 128 mg/L | > 128 mg/L | > 128 mg/L | 64 mg/L (≈ 142 µM) | > 128 mg/L
CCOC(=O)C1=C(O)CC(c2ccccc2)N(C(=O)c2ccccc2)C1c1ccccc1 (stereo not given) | > 128 mg/L | > 128 mg/L | > 128 mg/L | > 128 mg/L | > 128 mg/L | 64 mg/L (≈ 150 µM) | > 128 mg/L | > 128 mg/L | > 128 mg/L | > 128 mg/L | > 128 mg/L
CCOC(=O)C1=C(O)CC(c2ccccc2)N(C(=O)Cn2nnc(-c3ccccc3)n2)C1c1ccccc1 (stereo not given) | > 128 mg/L | > 128 mg/L | 128 mg/L (≈ 251 µM) | > 128 mg/L | > 128 mg/L | > 128 mg/L | > 128 mg/L | > 128 mg/L | > 128 mg/L | > 128 mg/L | > 128 mg/L

The remaining lines, values ahead:

MIC90 [1] | MIC90 (Enterococcus faecalis) | MIC90 (Enterococcus faecium) | MIC90 (Escherichia coli [2]) | MIC90 (Escherichia coli [3]) | MIC90 (Escherichia coli [4]) | MIC90 (Pseudomonas aeruginosa) | MIC90 (Klebsiella pneumoniae) | MIC90 (Haemophilus influenzae) | MIC90 (Moraxella catarrhalis) | MIC90 (Staphylococcus aureus) | Compound
> 128 mg/L | > 128 mg/L | > 128 mg/L | > 128 mg/L | > 128 mg/L | > 128 mg/L | > 128 mg/L | > 128 mg/L | > 128 mg/L | > 128 mg/L | – | CCOC(=O)C1=C(O)CC(c2ccccc2)N(C(=O)C(C)n2cnc3ccccc32)C1c1ccccc1 (stereo not given)
> 128 mg/L | > 128 mg/L | > 128 mg/L | > 128 mg/L | > 128 mg/L | > 128 mg/L | > 128 mg/L | > 128 mg/L | > 128 mg/L | > 128 mg/L | > 128 mg/L | CCOC(=O)C1=C(O)CC(c2ccccc2)N(C(=O)C(C)Sc2ccc3ccccc3c2)C1c1ccccc1 (stereo not given)
> 128 mg/L | > 128 mg/L | > 128 mg/L | > 128 mg/L | > 128 mg/L | > 128 mg/L | > 128 mg/L | > 128 mg/L | > 128 mg/L | 32 mg/L (≈ 66.6 µM) | > 128 mg/L | CCOC(=O)C1=C(O)CC(c2ccccc2)N(C(=O)Cn2ccc3ccccc32)C1c1ccccc1 (stereo not given)
> 128 mg/L | > 128 mg/L | > 128 mg/L | > 128 mg/L | > 128 mg/L | 64 mg/L (≈ 144 µM) | 128 mg/L (≈ 287 µM) | 128 mg/L (≈ 287 µM) | > 128 mg/L | 64 mg/L (≈ 144 µM) | 32 mg/L (≈ 71.8 µM) | CCOC(=O)C1=C(O)CC(c2ccccc2)N(C(=O)C(C)n2ccnc2)C1c1ccccc1 (stereo not given)
> 128 mg/L | > 128 mg/L | > 128 mg/L | > 128 mg/L | > 128 mg/L | 128 mg/L (≈ 259 µM) | > 128 mg/L | > 128 mg/L | > 128 mg/L | > 128 mg/L | > 128 mg/L | CCOC(=O)C1=C(O)CC(c2ccccc2)N(C(=O)C(C)n2ccc3ccccc32)C1c1ccccc1 (stereo not given)
> 128 mg/L | > 128 mg/L | 128 mg/L (≈ 277 µM) | > 128 mg/L | > 128 mg/L | > 128 mg/L | > 128 mg/L | > 128 mg/L | > 128 mg/L | 64 mg/L (≈ 138 µM) | > 128 mg/L | CCOC(=O)C1=C(O)CC(c2ccccc2)N(C(=O)C(C)N2CCCCC2)C1c1ccccc1 (stereo not given)
> 128 mg/L | > 128 mg/L | 128 mg/L (≈ 252 µM) | > 128 mg/L | > 128 mg/L | > 128 mg/L | > 128 mg/L | > 128 mg/L | > 128 mg/L | > 128 mg/L | > 128 mg/L | CCOC(=O)C1=C(O)CC(c2ccccc2)N(C(=O)COc2ccc3ccccc3c2)C1c1ccccc1 (stereo not given)
> 128 mg/L | > 128 mg/L | > 128 mg/L | > 128 mg/L | > 128 mg/L | > 128 mg/L | > 128 mg/L | > 128 mg/L | > 128 mg/L | 64 mg/L (≈ 134 µM) | > 128 mg/L | CCOC(=O)C1=C(O)CC(c2ccccc2)N(C(=O)C(C)N2CCN(C)CC2)C1c1ccccc1 (stereo not given)
> 128 mg/L | > 128 mg/L | 64 mg/L (≈ 133 µM) | > 128 mg/L | > 128 mg/L | > 128 mg/L | > 128 mg/L | > 128 mg/L | > 128 mg/L | > 128 mg/L | > 128 mg/L | CCOC(=O)C1=C(O)CC(c2ccccc2)N(C(=O)Cn2nnc3ccccc32)C1c1ccccc1 (stereo not given)
